Our source for the Activity values is ChEMBL document CHEMBL1148121, “New seco-prezizaane-type sesquiterpenes, jiadifenin with neurotrophic activity and 1,2-dehydroneomajucin from Illicium jiadifengpi” (J Nat Prod, 2002).

This assay has as its system Neuron. As to the kind of experiment: Neurotrophic activity in Sprague-Dawley rat neurons assessed as induction of neurite outgrowth at 0.1 to 10 uM after 5 days by microscopy. In kind it is functional, cell-based.

The source made the active and inactive calls. No cut-off for these calls is given here.

For `COC(=O)C1(O)O[C@@H]2C[C@@]13C(=CC(=O)[C@@H]3C)[C@]1(C)COC(=O)[C@]21O` (mixture of isomers), the result was Active.
Turning to `C[C@@H]1[C@H](O)C=C2[C@@]13C[C@@H](OC(=O)[C@@H]3O)[C@@]1(O)C(=O)OC[C@@]21C`, the result was Active.
